From patent US9902696B2, “1,4-substituted piperidine derivatives” (Cephalon, Inc., priority 2015, dated 2018)
Structures can show the parent of a compound that is named as a salt.

The compounds below were run against T1, recombinant human baculovirus-expressed GST-tagged FASN (Homo sapiens, UniProt P49327) (assay: FASN enzyme activity assay, fluorescence-based detection of CoA with CPM). Conditions: 5 nM FASN, 150 μM NADPH, 10 μM acetyl-CoA, 25 μM malonyl-CoA, 90 minutes incubation; read-out: IC50 data for Additional Compounds of Formulae I-V(a): Activity.
T1 construct: GST
T1 sequence (P49327 whole entry): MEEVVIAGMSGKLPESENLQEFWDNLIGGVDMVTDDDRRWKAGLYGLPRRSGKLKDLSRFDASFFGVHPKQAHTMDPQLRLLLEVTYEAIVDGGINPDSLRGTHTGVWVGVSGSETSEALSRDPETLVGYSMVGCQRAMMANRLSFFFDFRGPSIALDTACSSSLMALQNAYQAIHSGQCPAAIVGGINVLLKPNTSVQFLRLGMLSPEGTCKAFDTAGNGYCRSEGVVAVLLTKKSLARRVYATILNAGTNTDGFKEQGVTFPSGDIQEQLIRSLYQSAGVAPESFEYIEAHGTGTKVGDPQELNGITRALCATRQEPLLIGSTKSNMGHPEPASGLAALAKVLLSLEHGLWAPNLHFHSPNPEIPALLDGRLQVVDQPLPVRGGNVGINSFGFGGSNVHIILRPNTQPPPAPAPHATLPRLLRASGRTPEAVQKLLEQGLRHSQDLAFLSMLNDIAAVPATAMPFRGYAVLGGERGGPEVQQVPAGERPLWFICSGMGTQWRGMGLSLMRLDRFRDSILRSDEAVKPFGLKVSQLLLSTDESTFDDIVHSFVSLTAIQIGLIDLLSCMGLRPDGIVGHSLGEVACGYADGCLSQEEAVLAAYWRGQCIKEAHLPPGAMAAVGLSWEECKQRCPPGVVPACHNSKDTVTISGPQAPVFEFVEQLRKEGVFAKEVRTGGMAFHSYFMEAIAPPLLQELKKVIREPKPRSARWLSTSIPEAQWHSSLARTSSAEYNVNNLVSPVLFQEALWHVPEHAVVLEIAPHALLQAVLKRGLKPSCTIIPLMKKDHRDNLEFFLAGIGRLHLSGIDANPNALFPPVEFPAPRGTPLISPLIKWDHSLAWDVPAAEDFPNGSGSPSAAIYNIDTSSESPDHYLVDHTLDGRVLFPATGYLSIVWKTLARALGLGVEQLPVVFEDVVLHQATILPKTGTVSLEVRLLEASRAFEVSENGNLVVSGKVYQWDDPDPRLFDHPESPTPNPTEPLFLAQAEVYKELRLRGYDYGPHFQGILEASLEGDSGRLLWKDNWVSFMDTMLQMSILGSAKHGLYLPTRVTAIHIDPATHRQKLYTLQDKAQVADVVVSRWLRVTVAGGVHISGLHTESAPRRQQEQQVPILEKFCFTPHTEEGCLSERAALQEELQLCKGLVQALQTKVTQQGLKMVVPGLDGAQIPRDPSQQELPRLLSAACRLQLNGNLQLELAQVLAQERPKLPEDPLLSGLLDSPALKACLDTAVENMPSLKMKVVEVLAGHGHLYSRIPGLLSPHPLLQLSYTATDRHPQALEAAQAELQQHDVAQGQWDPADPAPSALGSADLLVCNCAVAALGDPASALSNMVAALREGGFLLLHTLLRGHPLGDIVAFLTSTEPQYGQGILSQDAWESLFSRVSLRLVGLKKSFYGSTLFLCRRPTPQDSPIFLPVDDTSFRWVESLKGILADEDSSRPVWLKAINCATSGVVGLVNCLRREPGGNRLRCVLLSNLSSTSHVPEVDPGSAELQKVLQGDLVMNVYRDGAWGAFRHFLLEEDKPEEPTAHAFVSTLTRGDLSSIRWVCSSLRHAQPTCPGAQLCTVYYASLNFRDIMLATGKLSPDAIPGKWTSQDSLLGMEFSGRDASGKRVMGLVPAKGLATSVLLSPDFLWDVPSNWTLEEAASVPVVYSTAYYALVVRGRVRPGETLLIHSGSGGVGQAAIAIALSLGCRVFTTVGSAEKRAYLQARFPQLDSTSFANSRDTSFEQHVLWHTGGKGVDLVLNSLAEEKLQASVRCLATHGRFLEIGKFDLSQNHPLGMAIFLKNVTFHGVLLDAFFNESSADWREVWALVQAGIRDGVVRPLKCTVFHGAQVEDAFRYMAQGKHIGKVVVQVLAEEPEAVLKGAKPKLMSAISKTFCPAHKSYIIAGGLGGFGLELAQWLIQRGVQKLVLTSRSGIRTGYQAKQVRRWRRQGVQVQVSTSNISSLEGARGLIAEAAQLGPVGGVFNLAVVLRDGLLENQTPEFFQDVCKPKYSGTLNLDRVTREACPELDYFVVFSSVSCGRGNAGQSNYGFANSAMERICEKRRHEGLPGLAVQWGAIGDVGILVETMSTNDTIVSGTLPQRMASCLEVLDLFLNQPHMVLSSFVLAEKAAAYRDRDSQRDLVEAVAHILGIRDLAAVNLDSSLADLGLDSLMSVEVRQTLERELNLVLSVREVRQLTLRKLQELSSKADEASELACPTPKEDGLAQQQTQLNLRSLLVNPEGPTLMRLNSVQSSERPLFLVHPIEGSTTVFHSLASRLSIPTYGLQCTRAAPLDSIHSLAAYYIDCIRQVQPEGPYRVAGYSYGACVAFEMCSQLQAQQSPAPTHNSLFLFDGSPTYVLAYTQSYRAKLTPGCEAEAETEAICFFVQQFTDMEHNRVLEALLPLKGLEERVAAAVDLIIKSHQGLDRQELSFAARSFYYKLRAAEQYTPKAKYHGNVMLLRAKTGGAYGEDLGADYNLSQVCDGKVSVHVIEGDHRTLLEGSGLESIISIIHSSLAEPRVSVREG
Format: biochemical
Procedure, shortened: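 CoA product reacted with thiol-reactive CPM (diluted to 50 μM in 70% ethanol), read at 390/530 nm after 30 min. Preceding reaction: 90 min, 5 nM recombinant GST-FASN, 150 μM NADPH, 10 μM acetyl-CoA, 25 μM malonyl-CoA, pH 7.5 HEPES, 0.5% DMSO. IC50s fitted by nonlinear sigmoidal regression.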

SMILES | IC50
Cc1c(-c2ccc(OC3CCN(C(=O)OC4CCOCC4)CC3)cc2)ccc2cccnc12 [Example 556, Tetrahydropyran-4-yl 4-[4-(8-methyl-7-quinolyl)phenoxy]piperidine-1-carboxylate] | 1000 to 10000 nM
Cc1c(-c2ccc(OC3CCN(C(=O)N4CCN(C)CC4)CC3)cc2)ccc2cccnc12 [Example 533, (4-Methyllpiperazin-1-yl)-[4-[4-(8-methyl-7-quinolyl)phenoxy]-1-piperidyl]methanone, HCl] | 1000 to 10000 nM
Cc1c(-c2ccc(OC3CCN(C(=O)NOC(C)C)CC3)cc2)ccn2ccnc12 [Example 630, N-Isopropoxy-4-[4-(8-methylimidazo[1,2-a]pyridin-7-yl)phenoxy]piperidine-1-carboxamide, HCl] | 100 to 999 nM
Cc1c(-c2ccc(OC3CCN(C(=O)C(C)(C)N)CC3)cc2)ccc2cccnc12 [Example 619, 2-Amino-2-methyl-1-[4-[4-(8-methyl-7-quinolyl)phenoxy]-1-piperidyl]propan-1-one] | 1000 to 10000 nM

Same assay, conditions: 5 nM FASN, 150 μM NADPH, 10 μM acetyl-CoA, 25 μM malonyl-CoA, 90 minutes incubation; read-out: IC50 data for Compounds of Formulae I-V/V(a): Activity

SMILES | IC50
O=C([C@H]1CCCO1)N1CCC(Oc2ccc(-c3ccc4c(N5CCOCC5)nccc4c3)cc2)CC1 [Example 452, {4-[4-(1-Morpholin-4-yl-isoquinolin-6-yl)-phenoxy]-piperidin-1-yl}-(R)-tetrahydrofuran-2-yl-methanone] | 1 to 99 nM
Cc1cc(C)c(C(=O)N2CCC(Oc3ccc(-c4cnc5ccccc5c4)cc3)CC2)o1 [Example 122, (3,5-Dimethylfuran-2-yl)-[4-(4-quinolin-3-yl-phenoxy)-piperidin-1-yl]-methanone, HCl] | 1000 to 10000 nM
COc1cc2cc(-c3ccc(OC4CCN(C(=O)C5CC5)CC4)cc3)cnc2cc1OC [Example 56, Cyclopropyl-{4-[4-(6,7-dimethoxyquinolin-3-yl)-phenoxy]-piperidin-1-yl}-methanone] | 1000 to 10000 nM
NC(=O)c1c(-c2ccc(OC3CCN(C(=O)[C@H]4CCCO4)CC3)cc2)ccc2cccnc12 [Example 336, 7-[4-[[1-[(2R)-Tetrahydrofuran-2-carbonyl]-4 piperidyl]oxy]phenyl]quinoline-8-carboxamide] | 100 to 999 nM
N#CCC(=O)N1CCC(Oc2ccc(-c3cnc4ccccc4c3)cc2)CC1 [Example 218, 3-Oxo-3-[4-(4-quinolin-3-yl-phenoxy)-piperidin-1-yl]-propionitrile] | 1000 to 10000 nM
Cc1ccc2ccc(-c3ccc(OC4CCN(C(=O)C5CC5)CC4)cc3)c(F)c2n1 [Example 26, Cyclopropyl-{4-[4-(8-fluoro-2-methylquinolin-7-yl)-phenoxy]-piperidin-1-yl}-methanone] | 1000 to 10000 nM
CCC(=O)N1CCC(Oc2ccc(-c3ccc4cccnc4c3)cc2Cl)CC1 [Example 194, 1-[4-(2-Chloro-4-quinolin-7-yl-phenoxy)-piperidin-1-yl]-propan-1-one] | 1000 to 10000 nM
NC(=O)C1(C(=O)N2CCC(Oc3ccc(-c4ccc5cncn5c4)cc3)CC2)CC1 [Example 301, 1-[4-(4-Imidazo[1,5-a]pyridin-6-yl-phenoxy)-piperidine-1-carbonyl]-cyclopropanecarboxylic acid amide] | 1000 to 10000 nM
Cc1c(-c2ccc(OC3CCN(C(N)=O)CC3)cc2)ccc2cccnc12 [Example 97, 4-[4-(8-methyl-7-quinolyl)phenoxy]piperidine-1-carboxamide] | 100 to 999 nM
Cc1c(-c2ccc(OC3CCN(C(=O)[C@H]4CCCO4)CC3)cc2)ccc2nccn12 [Example 285, {4-[4-(5-Methylimidazo[1,2-a]pyridin-6-yl)-phenoxy]-piperidin-1-yl}-(R)-tetrahydrofuran-2-yl-methanone] | 1 to 99 nM
COC(=O)N1CCC(Oc2ccc(-c3cnc4ccccc4c3)c(C)c2)CC1 [Example 208, 4-(3-Methyl-4-quinolin-3-yl-phenoxy)-piperidine-1-carboxylic acid methyl ester] | 1000 to 10000 nM
Nc1cc2cc(-c3ccc(OC4CCN(C(=O)C5CC5)CC4)cc3)ccc2cn1 [Example 423, {4-[4-(3-Aminoisoquinolin-6-yl)-phenoxy]-piperidin-1-yl}-cyclopropyl-methanone] | 100 to 999 nM
O=C(c1cccc(-c2ncc[nH]2)c1)N1CCC(Oc2ccc(-c3cnc4ccccc4c3)cc2)CC1 [Example 129, [3-(1H-Imidazol-2-yl)-phenyl]-[4-(4-quinolin-3-yl-phenoxy)-piperidin-1-yl]-methanone, HCl] | 1000 to 10000 nM
CCC(=O)N1CCC(Oc2ccc(-c3cc(C)c4nccn4c3)cc2)CC1 [Example 284, 1-{4-[4-(8-Methylimidazo[1,2-a]pyridin-6-yl)-phenoxy]-piperidin-1-yl}-propan-1-one] | 1000 to 10000 nM
CCC(=O)N1CCC(Oc2ccc(-c3cnc4ccccc4c3)cc2)CC1 [Example 2, 1-[4-(4-Quinolin-3-yl-phenoxy)-piperidin-1-yl]-propan-1-one] | 1 to 99 nM
O=C(C1CCC1)N1CCC(Oc2ccc(-c3ccc(Nc4ccccc4)nc3)cc2)CC1 [Example 394, Cyclobutyl-{4-[4-(6-phenylaminopyridin-3-yl)-phenoxy]-piperidin-1-yl}-methanone, TFA salt] | 1000 to 10000 nM
CCC(=O)N1CCC(Oc2ccc(-c3cnc4ccccc4c3OC)cc2)CC1 [Example 50, 1-{4-[4-(4-Methoxyquinolin-3-yl)-phenoxy]-piperidin-1-yl}-propan-1-one] | 100 to 999 nM
CCC(=O)N1CCC(Nc2ccc(-c3cnc4ccccc4c3)cc2)CC1 [Example 526, 1-[4-(4-Quinolin-3-yl-phenylamino)-piperidin-1-yl]-propan-1-one, HCl] | 1000 to 10000 nM

SMILES | IC50
CCC(=O)N1CCC(Oc2ccc(-c3ccc4c(Cl)nccc4c3)cc2)CC1 [Example 419, 1-{4-[4-(1-Chloroisoquinolin-6-yl)-phenoxy]-piperidin-1-yl}-propan-1-one] | 100 to 999 nM
COc1cccc2cc(-c3ccc(OC4CCN(C(=O)C5CC5)CC4)cc3)cnc12 [Example 58, Cyclopropyl-{4-[4-(8-methoxyquinolin-3-yl)-phenoxy]-piperidin-1-yl}-methanone] | 100 to 999 nM
CCC(=O)N1CCC(Oc2ccc(-c3ccc4scnc4c3)cc2)CC1 [Example 269, 1-[4-(4-Benzothiazol-5-yl-phenoxy)-piperidin-1-yl]-propan-1-one; TFA salt] | 100 to 999 nM
CCC(=O)N1CCC(Oc2ccc(-c3ccc4nnc(C(F)(F)F)n4c3)cc2)CC1 [Example 159, 1-{4-[4-(3-Trifluoromethyl-1,2,4-triazolo[4,3-a]pyridin-6-yl)-phenoxy]-piperidin-1-yl}-propan-1-one, HCl] | 1000 to 10000 nM
CCONC(=O)N1CCC(Oc2ccc(-c3ccc4cccnc4c3C)cc2)CC1 [Example 93, N-ethoxy-4-[4-(8-methyl-7-quinolyl)phenoxy]piperidine-1-carboxamide] | 1 to 99 nM
CC(C)C(=O)N1CCC(Oc2ccc(-c3cnc4ccccc4c3)cc2Cl)CC1 [Example 192, 1-[4-(2-Chloro-4-quinolin-3-yl-phenoxy)-piperidin-1-yl]-2-methyl-propan-1-one] | 1000 to 10000 nM
CN(C)c1nccc2cc(-c3ccc(OC4CCN(C(=O)[C@H]5CCCO5)CC4)cc3)ccc12 [Example 453, {4-[4-(1-Dimethylaminoisoquinolin-6-yl)-phenoxy]-piperidin-1-yl}-(R)-tetrahyrofuran-2-yl methananone, HCl] | 100 to 999 nM
Cc1nccc2cc(-c3ccc(OC4CCN(C(=O)[C@H]5CCCO5)CC4)cc3)ccc12 [Example 431, {4-[4-(1-Methylisoquinolin-6-yl)-phenoxy]-piperidin-1-yl}-(R)-tetrahydro-furan-2-yl-methanone] | 1 to 99 nM
COc1cc2ncc(-c3ccc(OC4CCN(C(=O)C5CC5)CC4)cc3)cc2cc1C [Example 442, Cyclopropyl-{4-[4-(7-methoxy-6-methylquinolin-3-yl)-phenoxy]-piperidin-1-yl}-methanone] | 1000 to 10000 nM
CCC(=O)N1CCC(Oc2ccc(-c3ccc4cccnc4c3C)cc2)CC1C (mixture of isomers) [Example 364, 1-{2-Methyl-4-[4-(8-methylquinolin-7-yl)-phenoxy]-piperidin-1-yl}-propan-1-one, HCl] | 100 to 999 nM
Cc1c(-c2ccc(OC3CCN(C(=O)[C@H]4CCCO4)CC3)cc2)cnc2ccccc12 [Example 65, {4-[4-(4-Methylquinolin-3-yl)-phenoxy]-piperidin-1-yl}-(R)-tetrahydro-furan-2-yl-methanone] | 1 to 99 nM
CCNC(=O)N1CCC(Oc2ccc(-c3ccc4cccnc4c3OC)cc2)CC1 [Example 86, 4-[4-(8-Methoxyquinolin-7-yl)-phenoxy]-piperidine-1-carboxylic acid ethylamide] | 1 to 99 nM
Cc1c(-c2ccc(OC3CCN(C(=O)C4CC4)CC3)c(F)c2)cnc2ccccc12 [Example 229, Cyclopropyl-{4-[2-fluoro-4-(4-methylquinolin-3-yl)-phenoxy]-piperidin-1-yl}-methanone] | 100 to 999 nM
CCC(=O)N1CC[C@@H](Oc2ccc(-c3cnc4ccccc4c3)cc2)C1 [Example 345, (R)-1-(3-(4-(quinolin-3-yl)phenoxy)pyrrolidin-1-yl)propan-1-one, HCl] | 1000 to 10000 nM
Cc1cc(-c2cnc3ccccc3c2)ccc1OC1CCN(C(=O)C2CC2)CC1 [Example 214, Cyclopropyl-[4-(2-methyl-4-quinolin-3-yl-phenoxy)-piperidin-1-yl]-methanone] | 1000 to 10000 nM
CCC(=O)N1CCC(Oc2ccc(-c3ccc4occc4c3)cc2)CC1 [Example 8, 1-[4-(4-Benzofuran-5-yl-phenoxy)-piperidin-1-yl]-propan-1-one] | 100 to 999 nM
CN1CCN(CCOc2c(-c3ccc(OC4CCN(C(=O)[C@H]5CCCO5)CC4)cc3)ccc3cccnc23)CC1 [Example 185, [4-[4-[8-[2-(4-Methylpiperazin-1-yl)ethoxy]-7-quinolyl]phenoxy]-1-piperidyl]-[(2R)-tetrahydrofuran-2-yl]methanone, HCl] | 100 to 999 nM
